According to patent US9790178B2, “Pyrrolidinyl urea, thiourea, guanidine and cyanoguanidine compounds as TrkA kinase inhibitors” (Array BioPharma Inc., priority 2012, dated 2017):
pIC50: −log10 of the molar value.

Assays:
[1] = molecular target: T1, Rsk3 (Homo sapiens, UniProt Q15349); experiment: KinaseProfiler off-target kinase profiling; assay type: biochemical; settings: 10 μM, ATP near Km
T1 construct: purchased Millipore (KinaseProfiler service)
Method in brief: (§1)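 10 μM test compound; [ATP] near Km for each enzyme; duplicate determinations; output = average % of control.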

[2] = molecular target: T2, AMPK(A1/B1/G1) (Homo sapiens, UniProt Q13131); experiment: KinaseProfiler off-target kinase profiling; assay type: biochemical; settings: 10 μM, ATP near Km
T2 construct: purchased Millipore, Inc. (KinaseProfiler service)
Method in brief: as §1

[3] = molecular target: T3, Pim-1 (Homo sapiens, UniProt P11309); experiment: KinaseProfiler off-target kinase profiling; assay type: biochemical; settings: 10 μM, ATP near Km
T3 construct: purchased Millipore, Inc. (KinaseProfiler service)
Method in brief: as §1

[4] = molecular target: T4, AKT1 (Homo sapiens, UniProt P31749); experiment: KinaseProfiler off-target kinase profiling; assay type: biochemical; settings: 10 μM, ATP near Km
T4 construct: purchased Millipore, Inc. (KinaseProfiler service)
Method in brief: as §1

[5] = molecular target: T5, Rsk2 (Homo sapiens, UniProt P51812); experiment: KinaseProfiler off-target kinase profiling; assay type: biochemical; settings: 10 μM, ATP near Km
T5 construct: purchased Millipore (KinaseProfiler service)
Method in brief: as §1

[6] = molecular target: T6, mTOR (Homo sapiens, UniProt P42345); experiment: KinaseProfiler off-target kinase profiling; assay type: biochemical; settings: 10 μM, ATP near Km
T6 construct: purchased Millipore, Inc. (KinaseProfiler service)
Method in brief: as §1

[7] = molecular target: T7, p38beta (Homo sapiens, UniProt Q15759); experiment: KinaseProfiler off-target kinase profiling; assay type: biochemical; settings: 10 μM, ATP near Km
T7 construct: purchased Millipore, Inc. (KinaseProfiler service)
Method in brief: as §1

[8] = molecular target: T8, MARK2 (Homo sapiens, UniProt Q7KZI7); experiment: KinaseProfiler off-target kinase profiling; assay type: biochemical; settings: 10 μM, ATP near Km
T8 construct: purchased Millipore, Inc. (KinaseProfiler service)
Method in brief: as §1

[9] = molecular target: T9, IR (Homo sapiens, UniProt P06213); experiment: KinaseProfiler off-target kinase profiling; assay type: biochemical; settings: 10 μM, ATP near Km
T9 construct: purchased Millipore, Inc. (KinaseProfiler service)
Method in brief: as §1

[10] = molecular target: T10, BTK (Homo sapiens, UniProt Q06187); experiment: KinaseProfiler off-target kinase profiling; assay type: biochemical; settings: 10 μM, ATP near Km
T10 construct: purchased Millipore, Inc. (KinaseProfiler service)
Method in brief: as §1

[11] = molecular target: T11, ERK2 (Homo sapiens, UniProt P28482); experiment: KinaseProfiler off-target kinase profiling; assay type: biochemical; settings: 10 μM, ATP near Km
T11 construct: purchased Millipore, Inc. (KinaseProfiler service)
Method in brief: as §1

[12] = molecular target: T12, MST2 (Homo sapiens, UniProt Q13188); experiment: KinaseProfiler off-target kinase profiling; assay type: biochemical; settings: 10 μM, ATP near Km
T12 construct: purchased Millipore, Inc. (KinaseProfiler service)
Method in brief: as §1

[13] = molecular target: T13, BrSK1 (Homo sapiens, UniProt Q8TDC3); experiment: KinaseProfiler off-target kinase profiling; assay type: biochemical; settings: 10 μM, ATP near Km
T13 construct: purchased Millipore, Inc. (KinaseProfiler service)
Method in brief: as §1

[14] = molecular target: T14, Lck (Homo sapiens, UniProt P06239); experiment: KinaseProfiler off-target kinase profiling; assay type: biochemical; settings: 10 μM, ATP near Km
T14 construct: purchased Millipore, Inc. (KinaseProfiler service)
Method in brief: as §1

[15] = molecular target: T15, Lyn (Homo sapiens, UniProt P07948); experiment: KinaseProfiler off-target kinase profiling; assay type: biochemical; settings: 10 μM, ATP near Km
T15 construct: purchased Millipore, Inc. (KinaseProfiler service)
Method in brief: as §1

[16] = molecular target: T16, CDK5/p25 (Homo sapiens, UniProt Q00535); experiment: KinaseProfiler off-target kinase profiling; assay type: biochemical; settings: 10 μM, ATP near Km
T16 construct: purchased Millipore, Inc. (KinaseProfiler service)
Method in brief: as §1

[17] = molecular target: T17, CDK5/p35 (Homo sapiens, UniProt Q00535); experiment: KinaseProfiler off-target kinase profiling; assay type: biochemical; settings: 10 μM, ATP near Km
T17 construct: purchased Millipore, Inc. (KinaseProfiler service)
Method in brief: as §1

[18] = molecular target: T18, MKK6 (Homo sapiens, UniProt P52564); experiment: KinaseProfiler off-target kinase profiling; assay type: biochemical; settings: 10 μM, ATP near Km
T18 construct: purchased Millipore, Inc. (KinaseProfiler service)
Method in brief: as §1

[19] = molecular target: T19, EphA8 (Homo sapiens, UniProt P29322); experiment: KinaseProfiler off-target kinase profiling; assay type: biochemical; settings: 10 μM, ATP near Km
T19 construct: purchased Millipore, Inc. (KinaseProfiler service)
Method in brief: as §1

[20] = molecular target: T20, ALK4 (Homo sapiens, UniProt P36896); experiment: KinaseProfiler off-target kinase profiling; assay type: biochemical; settings: 10 μM, ATP near Km
T20 construct: purchased Millipore, Inc. (KinaseProfiler service)
Method in brief: as §1

[21] = molecular target: T21, PKCbetaII (Homo sapiens, UniProt P05771); experiment: KinaseProfiler off-target kinase profiling; assay type: biochemical; settings: 10 μM, ATP near Km
T21 construct: purchased Millipore, Inc. (KinaseProfiler service)
Method in brief: as §1

[22] = molecular target: T22, GRK5 (Homo sapiens, UniProt P34947); experiment: KinaseProfiler off-target kinase profiling; assay type: biochemical; settings: 10 μM, ATP near Km
T22 construct: purchased Millipore, Inc. (KinaseProfiler service)
Method in brief: as §1

[23] = molecular target: T23, FGFR4 (Homo sapiens, UniProt P22455); experiment: KinaseProfiler off-target kinase profiling; assay type: biochemical; settings: 10 μM, ATP near Km
T23 construct: purchased Millipore, Inc. (KinaseProfiler service)
Method in brief: as §1

[24] = molecular target: T24, CDK6/cyclinD3 (Homo sapiens, UniProt Q00534); experiment: KinaseProfiler off-target kinase profiling; assay type: biochemical; settings: 10 μM, ATP near Km
T24 construct: purchased Millipore, Inc. (KinaseProfiler service)
Method in brief: as §1

[25] = molecular target: T25, FAK (Homo sapiens, UniProt Q05397); experiment: KinaseProfiler off-target kinase profiling; assay type: biochemical; settings: 10 μM, ATP near Km
T25 construct: purchased Millipore, Inc. (KinaseProfiler service)
Method in brief: as §1

[26] = molecular target: T26, His-tagged recombinant human TrkA (Homo sapiens, UniProt P04629); experiment: TrkA LanthaScreen Eu Kinase Binding Assay; settings: averaged IC50 values; read-out: TrkA enzyme IC50
T26 construct: 6HIS tagged cytoplasmic domain from Invitrogen, Catalog No. PV3144; purchased Invitrogen PV3144
Method: TrkA binding activity was determined in a TrkA LanthaScreen™ Eu Kinase Binding Assay. 5 nM His-tagged recombinant human TrkA (6HIS tagged cytoplasmic domain from Invitrogen, Catalog No. PV3144) was incubated with 4 nM Alexa-Fluor® Tracer 236 (Invitrogen Cat. No. PV5592), 2 nM biotinylated anti-His (Invitrogen Cat. No. PV6090), and 2 nM europium-labeled Streptavidin (Invitrogen Cat. No. PV5899), in buffer (25 mM MOPS, pH 7.5, 5 mM MgCl2, 0.005% Triton X-100). Three fold serial dilutions of compounds of the invention in DMSO were added to a final percentage of 2% DMSO. After 60-minute incubation at 22° C., the reaction was measured using the EnVision mutlimode plate reader (PerkinElmer) via TR-FRET dual wavelength detection at […]. The percent of control was calculated using a ratiometric emission factor. The IC50 values were determined by fitting a four parameter model to the percent of control data.
Table A provides averaged IC50 values for compounds of the invention when tested in the assay of Example A, where A represents an averaged IC50 value <100 nM; and B represents an averaged IC50 value from 100 to 1,000 nM.

[27] = tested on: off-target kinases (panel of about 230 other kinases); experiment: KinaseProfiler full kinase panel, overall selectivity; assay type: biochemical; settings: 10 μM concentration
Method: A representative compound of the invention (Example 20) was tested for off-target kinase activity at a concentration of 10 μM by Millipore, Inc. in their KinaseProfiler™ service against all the kinases available in their full kinase panel. The compound was run in duplicate at a concentration of ATP near the Km for each individual kinase according to Millipore's specifications. The results are shown in Table B. Data are reported as percent of control (POC) and are the average of the two replicates.
Such a drug profile would represent a safer approach to treating pain, inflammation, cancer and certain skin diseases than has been previously reported.

T16 sequence (Q00535 whole entry): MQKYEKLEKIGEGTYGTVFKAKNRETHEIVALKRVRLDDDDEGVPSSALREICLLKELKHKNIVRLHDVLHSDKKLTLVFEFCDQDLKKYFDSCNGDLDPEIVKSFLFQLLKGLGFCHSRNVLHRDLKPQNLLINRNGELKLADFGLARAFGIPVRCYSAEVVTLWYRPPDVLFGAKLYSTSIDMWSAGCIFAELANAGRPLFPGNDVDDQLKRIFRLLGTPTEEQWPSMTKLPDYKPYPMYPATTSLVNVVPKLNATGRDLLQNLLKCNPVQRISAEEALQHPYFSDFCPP
T16 sequence (Q15078 99-307 partner limits assumed): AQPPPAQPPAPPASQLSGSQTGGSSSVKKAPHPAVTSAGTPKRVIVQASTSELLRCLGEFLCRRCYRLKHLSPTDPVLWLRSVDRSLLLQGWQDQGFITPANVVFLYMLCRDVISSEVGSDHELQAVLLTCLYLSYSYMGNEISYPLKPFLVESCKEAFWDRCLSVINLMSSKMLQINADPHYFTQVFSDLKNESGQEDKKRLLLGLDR
T17 sequence (Q00535 whole entry): as the sequence (Q00535 whole entry) above
T17 sequence (Q15078 whole entry partner): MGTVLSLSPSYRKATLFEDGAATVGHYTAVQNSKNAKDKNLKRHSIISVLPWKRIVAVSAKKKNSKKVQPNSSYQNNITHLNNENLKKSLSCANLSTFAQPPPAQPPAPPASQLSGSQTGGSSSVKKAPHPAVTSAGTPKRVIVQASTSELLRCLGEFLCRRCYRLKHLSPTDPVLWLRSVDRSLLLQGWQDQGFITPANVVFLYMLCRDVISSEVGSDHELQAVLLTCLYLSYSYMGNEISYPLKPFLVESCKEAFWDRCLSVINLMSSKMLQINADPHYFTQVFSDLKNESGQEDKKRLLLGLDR
T3 sequence (P11309 whole entry): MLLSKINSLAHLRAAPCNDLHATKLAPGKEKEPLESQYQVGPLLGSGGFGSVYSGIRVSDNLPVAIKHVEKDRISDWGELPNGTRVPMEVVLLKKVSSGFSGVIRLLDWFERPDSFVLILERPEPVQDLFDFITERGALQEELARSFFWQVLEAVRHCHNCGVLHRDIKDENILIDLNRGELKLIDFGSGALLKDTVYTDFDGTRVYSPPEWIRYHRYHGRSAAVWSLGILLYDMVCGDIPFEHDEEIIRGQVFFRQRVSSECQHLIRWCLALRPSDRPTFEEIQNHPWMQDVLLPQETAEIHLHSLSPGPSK
T13 sequence (Q8TDC3 whole entry): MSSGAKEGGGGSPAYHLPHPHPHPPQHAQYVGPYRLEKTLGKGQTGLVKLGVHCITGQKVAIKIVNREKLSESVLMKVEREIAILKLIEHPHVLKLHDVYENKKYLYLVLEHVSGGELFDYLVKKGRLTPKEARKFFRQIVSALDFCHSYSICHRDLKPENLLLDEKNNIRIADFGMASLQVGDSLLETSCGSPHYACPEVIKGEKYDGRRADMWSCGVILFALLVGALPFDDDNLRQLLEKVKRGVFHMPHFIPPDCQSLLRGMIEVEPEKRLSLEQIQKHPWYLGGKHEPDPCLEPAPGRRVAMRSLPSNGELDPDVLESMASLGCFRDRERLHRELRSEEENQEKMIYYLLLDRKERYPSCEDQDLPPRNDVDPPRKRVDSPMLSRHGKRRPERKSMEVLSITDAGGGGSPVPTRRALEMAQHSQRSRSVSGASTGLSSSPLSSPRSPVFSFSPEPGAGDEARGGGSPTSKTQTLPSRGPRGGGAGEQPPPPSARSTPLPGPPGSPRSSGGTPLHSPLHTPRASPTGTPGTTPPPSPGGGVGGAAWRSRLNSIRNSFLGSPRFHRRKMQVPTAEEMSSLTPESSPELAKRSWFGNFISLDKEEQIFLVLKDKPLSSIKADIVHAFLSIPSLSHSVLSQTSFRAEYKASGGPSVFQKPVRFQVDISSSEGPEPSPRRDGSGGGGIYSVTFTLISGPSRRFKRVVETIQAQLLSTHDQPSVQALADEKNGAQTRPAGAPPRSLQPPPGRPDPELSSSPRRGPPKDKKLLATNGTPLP
T26 sequence (P04629 440-796 limits assumed): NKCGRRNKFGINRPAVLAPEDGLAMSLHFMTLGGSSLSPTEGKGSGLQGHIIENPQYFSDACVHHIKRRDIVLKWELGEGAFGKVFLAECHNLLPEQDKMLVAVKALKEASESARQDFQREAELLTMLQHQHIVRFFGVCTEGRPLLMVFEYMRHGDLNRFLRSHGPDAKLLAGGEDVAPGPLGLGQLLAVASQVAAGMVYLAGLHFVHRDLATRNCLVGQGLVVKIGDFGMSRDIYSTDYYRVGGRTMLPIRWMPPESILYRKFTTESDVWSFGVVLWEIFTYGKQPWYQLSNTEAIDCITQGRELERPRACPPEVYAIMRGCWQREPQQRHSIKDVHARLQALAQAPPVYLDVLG
T12 sequence (Q13188 whole entry): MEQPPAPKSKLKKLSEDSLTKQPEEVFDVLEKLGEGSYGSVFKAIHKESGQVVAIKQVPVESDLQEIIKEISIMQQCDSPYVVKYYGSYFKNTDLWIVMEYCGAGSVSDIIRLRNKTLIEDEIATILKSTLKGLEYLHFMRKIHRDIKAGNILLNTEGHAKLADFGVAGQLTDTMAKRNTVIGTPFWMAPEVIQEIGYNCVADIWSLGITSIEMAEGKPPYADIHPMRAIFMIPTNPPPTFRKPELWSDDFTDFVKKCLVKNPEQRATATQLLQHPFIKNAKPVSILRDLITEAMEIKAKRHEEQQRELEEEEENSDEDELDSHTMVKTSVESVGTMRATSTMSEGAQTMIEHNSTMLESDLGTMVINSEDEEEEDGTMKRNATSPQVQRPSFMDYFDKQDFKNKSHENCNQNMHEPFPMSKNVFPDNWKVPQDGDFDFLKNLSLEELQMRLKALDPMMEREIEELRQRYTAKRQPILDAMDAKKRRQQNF
T8 sequence (Q7KZI7 whole entry): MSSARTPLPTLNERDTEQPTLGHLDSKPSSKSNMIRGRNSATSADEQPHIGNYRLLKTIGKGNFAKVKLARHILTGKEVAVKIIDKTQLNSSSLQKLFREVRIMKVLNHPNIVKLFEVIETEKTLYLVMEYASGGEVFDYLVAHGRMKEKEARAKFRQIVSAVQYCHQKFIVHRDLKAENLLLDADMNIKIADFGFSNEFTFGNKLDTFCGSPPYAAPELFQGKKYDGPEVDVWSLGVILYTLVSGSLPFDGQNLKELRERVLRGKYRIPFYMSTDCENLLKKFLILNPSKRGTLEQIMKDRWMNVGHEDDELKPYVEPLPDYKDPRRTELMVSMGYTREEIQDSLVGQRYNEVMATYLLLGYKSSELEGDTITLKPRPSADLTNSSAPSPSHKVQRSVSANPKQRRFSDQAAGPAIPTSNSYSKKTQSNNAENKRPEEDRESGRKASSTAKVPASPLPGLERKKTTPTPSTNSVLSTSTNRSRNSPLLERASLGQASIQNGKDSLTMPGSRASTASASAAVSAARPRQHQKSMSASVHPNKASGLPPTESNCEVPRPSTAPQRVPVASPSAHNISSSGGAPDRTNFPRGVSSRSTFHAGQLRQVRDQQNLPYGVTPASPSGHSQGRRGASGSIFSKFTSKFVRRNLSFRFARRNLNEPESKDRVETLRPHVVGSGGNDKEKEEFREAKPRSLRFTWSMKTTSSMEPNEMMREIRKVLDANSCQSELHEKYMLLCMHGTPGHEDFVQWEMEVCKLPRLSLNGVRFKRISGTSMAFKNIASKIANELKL
T14 sequence (P06239 whole entry): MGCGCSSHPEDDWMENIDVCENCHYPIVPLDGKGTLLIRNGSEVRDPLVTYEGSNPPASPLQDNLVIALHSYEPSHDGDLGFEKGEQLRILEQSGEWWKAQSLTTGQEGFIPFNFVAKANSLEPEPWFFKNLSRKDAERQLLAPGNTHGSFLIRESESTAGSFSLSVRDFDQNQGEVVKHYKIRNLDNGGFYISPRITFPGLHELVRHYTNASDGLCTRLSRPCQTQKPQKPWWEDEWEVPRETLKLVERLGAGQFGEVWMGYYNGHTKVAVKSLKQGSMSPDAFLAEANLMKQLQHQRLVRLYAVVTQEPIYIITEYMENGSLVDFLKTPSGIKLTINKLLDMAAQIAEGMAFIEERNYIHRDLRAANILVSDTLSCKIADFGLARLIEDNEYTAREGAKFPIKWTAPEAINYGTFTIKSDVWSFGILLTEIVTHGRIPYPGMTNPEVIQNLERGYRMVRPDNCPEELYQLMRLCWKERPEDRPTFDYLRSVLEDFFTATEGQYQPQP
T22 sequence (P34947 whole entry): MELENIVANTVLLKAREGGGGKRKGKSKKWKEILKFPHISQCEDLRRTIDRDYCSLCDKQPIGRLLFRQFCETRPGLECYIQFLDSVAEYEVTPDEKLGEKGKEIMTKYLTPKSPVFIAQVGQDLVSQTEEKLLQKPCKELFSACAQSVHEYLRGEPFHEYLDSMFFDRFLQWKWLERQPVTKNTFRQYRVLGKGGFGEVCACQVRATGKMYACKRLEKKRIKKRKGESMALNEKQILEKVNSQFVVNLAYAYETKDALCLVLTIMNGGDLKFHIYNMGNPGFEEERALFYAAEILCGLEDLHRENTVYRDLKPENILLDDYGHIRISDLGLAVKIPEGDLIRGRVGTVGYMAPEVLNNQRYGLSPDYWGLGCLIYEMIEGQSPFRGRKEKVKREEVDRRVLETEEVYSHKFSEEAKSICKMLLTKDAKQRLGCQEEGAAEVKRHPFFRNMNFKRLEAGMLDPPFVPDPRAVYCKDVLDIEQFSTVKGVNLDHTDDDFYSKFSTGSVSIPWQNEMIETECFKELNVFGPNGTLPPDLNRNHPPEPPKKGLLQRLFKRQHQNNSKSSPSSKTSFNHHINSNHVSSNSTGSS

SMILES: COCCN1C[C@@H](NC(=O)Nc2c(-c3ccccc3)nc3c(C)nccn23)[C@H](c2ccc(F)c(F)c2)C1 [Example 20, 1-((3S,4R)-4-(3,4-difluorophenyl)-1-(2-methoxyethyl)pyrrolidin-3-yl)-3-(8-methyl-2-phenylimidazo[1,2-a]pyrazin-3-yl)urea]
- Avg. POC [1]: 107.5 POC
- Avg. POC [2]: 108.5 POC
- Avg. POC [3]: 105 POC
- Avg. POC [4]: 109 POC
- Avg. POC [5]: 110.5 POC
- Avg. POC [6]: 108 POC
- Avg. POC [7]: 98.5 POC
- Avg. POC [8]: 98 POC
- Avg. POC [9]: 87.5 POC
- Avg. POC [10]: 112.5 POC
- Avg. POC [11]: 96 POC
- Avg. POC [12]: 107.5 POC
- Avg. POC [13]: 112.5 POC
- Avg. POC [14]: 135.5 POC
- Avg. POC [15]: 104.5 POC
- Avg. POC [16]: 111 POC
- Avg. POC [17]: 121 POC
- Avg. POC [18]: 83 POC
- Avg. POC [19]: 98.5 POC
- Avg. POC [20]: 98.5 POC
- Avg. POC [21]: 106 POC
- Avg. POC [22]: 108 POC
- Avg. POC [23]: 90 POC
- Avg. POC [24]: 103.5 POC
- Avg. POC [25]: 109.5 POC
- pIC50 [26]: > 7.00
- selectivity for TrkA (and TrkB) versus other kinases in the panel [27]: largely inactive against off-target kinases
